Laboratory results: patent publication US20100130579A1, “CANCER THERAPY” (Georgetown University, priority 2006, published 2010)

What was measured:
RASSF1A = assay: RT-PCR of RASSF1A expression in cancer cells; type: cell-based, human
Experimental: FIGS. 1A-1D. Mahanine induces RASSF1A in prostate and other cancer cells. FIG. 1A: Microarray analyses of PC3 cells treated with ([…] (+) or vehicle (−) for 2 days, RNA was extracted and microarray analysis was performed. FIG. 1B: RT-PCR data showing the expression of RASSF1A and GAPDH in untreated normal prostate epithelial cells (PrEC) and human prostate cancer cells (PC3). FIG. 1C: PC3 (left panel) and LNCaP (right panel) cells were treated with 0, 1, 2 and 3 μg/ml mahanine for 3 days. RNA was extracted, and RT-PCR assays were performed to detect RASSF1A and GAPDH expression. Representative photograph from an experiment that was repeated thrice. Quantitative estimations of relative levels of RASSF1A mRNAs (lower panels) were determined by densitometric measurements of RT-PCR gels from three independent experiments after normalization with GAPDH. […]
(§1) Genes of interest were amplified using 500 ng of total RNA reverse-transcribed to cDNA using a Superscript II kit (Invitrogen) with random hexamers. […] After amplification, PCR products were separated on 1.5% agarose gels and visualized by ethidium bromide fluorescence using the Fuji LAS-1000 Imager. […] Band intensities were quantified by using ImageJ software (NIH, Bethesda, Md.).

cyclin D1 = assay: RT-PCR of cyclin D1 mRNA in cancer cells; type: cell-based, human
cyclin E1 = assay: RT-PCR of cyclin E1 mRNA in prostate cancer cells; type: cell-based, human; conditions: PC3 or LNCaP cells, mahanine treatment
Experimental: FIG. 5. RASSF1A down-regulates cyclin D1 expression in prostate cancer cells but not other cyclins. […] RNA was extracted, and RT-PCR assays were performed to detect RASSF1A, cyclin A1, B1, D1, E1 and GAPDH mRNAs. Representative photograph from an experiment that was repeated thrice. Quantitative estimations of relative levels of cyclin D1 and RASSF1A mRNAs were determined by densitometric measurements of RT-PCR gels from three independent experiments after normalization with GAPDH.
as §1, with “hexamers. Human-specific primers were designed using the Primer Quest program and purchased from Integrated DNA Technologies, Inc (Coralville, Iowa).” for “hexamers.”

cyclin D1 promoter = assay: Cyclin D1 promoter activity (luciferase) assay; type: cell-based, human; conditions: PC3 cells
Experimental: FIGS. 6A-6B. Mahanine regulates the transcriptional activity of cyclin D1 and RASSF1A siRNA prevents mahanine-induced repression of cyclin D1 transcriptional activity. FIG. 6A: PC3 cells were transfected with 200 ng of full-length cyclin D1 promoter luciferase plasmids (−1745cyclin D1-Luc) or basic luciferase (PA3-Luc) plasmids and 10 ng of Renilla luciferase (pRL-TK-Luc) plasmids. Twenty-four hours after transfection cells were treated with 0, 1 and 2 μg/ml mahanine for 48 hours in normal growth media. FIG. 6B: PC3 cells were transfected with 200 ng of full-length cyclin D1 promoter luciferase plasmids or basic luciferase plasmids and 10 ng of Renilla luciferase (pRL-TK-Luc) plasmids with 200 ng of RASSF1A or RASSF1A siRNA with or without 2 μg/ml mahanine for 48 hours in normal growth media. After treatment, cells were harvested, and luciferase assays were performed. Relative cyclin D1 promoter activity was determined after normalization with Renilla luciferase activity. […]
Cyclin D1 promoter activity assay: PC3 cells were transfected with 200 ng of cyclin D1 promoter-luciferase (−1745-cyclin D1-Luc) (35) construct using GeneJammer transfection reagent (Stratagene, La Jolla, Calif.). […] After 48 hours, luciferase activity was measured in cell lysates in a microplate luminometer using the Dual Luciferase Assay kit (Promega, Madison, Wis.) according to the manufacturer's protocol. […]

LNCaP and PC3 cells = conditions: androgen-responsive LNCaP and androgen-independent PC3 cells; cited from earlier work
caspase-3 = conditions: PC3 cells; cited from earlier work

## CC(C)=CCC[C@@]1(C)C=Cc2c(c(C)cc3c2[nH]c2cc(O)ccc23)O1 [mahanine]
RASSF1A; A431, A549, ASPC-1, HT-29, MCF7 and SKOV-3 cells, 2 and 3 μg/ml, 2 days
  induction of RASSF1A expression (RT-PCR): induced RASSF1A expression
RASSF1A; PC3 cells, 1, 2 and 3 μg/ml, 3 days, dose-dependent
  induction of RASSF1A gene expression (RT-PCR): 20-80 folds
Cyclin D1; PC3 cells, 1, 2 and 3 μg/ml, 3 days
  cyclin D1 expression (RT-PCR): down-regulated the expression of cyclin D1 in PC3 cells in a dose-dependent manner
Cyclin D1; epidermoid (A431), lung (A549), pancreatic (ASPC-1), colon (HT-29), breast (MCF7) and ovarian (SKOV-3) cancer cells, 2 and 3 μg/ml, 2 days
  cyclin D1 expression (RT-PCR): down regulation of cyclin D1
Cyclin E1
  cyclin E1 expression (RT-PCR): did not alter the expression
Cyclin D1 promoter; 1 and 2 μg/ml mahanine, 48 hours, P<0.01
  cyclin D1 promoter activity: decreased cyclin D1 promoter activity in a dose-dependent manner
Cyclin D1 promoter; full-length cyclin D1 promoter luciferase construct
  cyclin D1 promoter activity relative to basic vector transfected cells: approximately 20 fold
LNCaP and PC3 cells
  growth of prostate cancer cells: inhibits growth in a dose-dependent manner
caspase-3
  caspase-3 cleavage and activation: greatly increased caspase-3 cleavage and activation
